Tests used:
HeLa cells = experiment: HeLa cell viability, MTT, 2 hr exposure; type: cell-based
Experimental: HeLa cells (ATCC designation CCL-2) were maintained in Dulbecco's Modified Eagle's medium (DMEM). […] All three cell types were cultured in media supplemented with 10% fetal bovine serum (FBS), […] (0.3 mg/ml), antibiotics (penicillin, streptomycin, and kanamycin at 0.04 mg/ml each), and 0.05% sodium bicarbonate.
(§1) The experiments described below were conducted to determine the activity and cytotoxicity of short chain compounds having one or two biguanide groups. […] The efficacy determinations were made using P4R5 cells, which allow for the detection of bacterial β-galactosidase activity upon release of viral tat protein into the parent HeLa cell.

cell-free HIV-1 = experiment: Cell-free HIV-1 infectivity in P4R5 cells, β-galactosidase readout; type: cell-based; conditions: 2 hr exposure of cells to compounds in the presence of virus
Experimental: as §1

P4R5 cells = experiment: P4R5 cell viability, MTT
From the text: (§2) To build on the information provided by the monomeric biguanide data a series of polybiguanide molecules were synthesized with varied linker length as described in Example 1. In these molecules the methylene spacer arms between the biguanide functionalities (X and Y in Forumla I) have been changed.
As described above the effect of PEHMB and related compounds on P4R5 cell viability after a two-hour exposure to the compound was compared to the effects of control compounds such as N-9. […] To further evaluate the effect of this class of compound on various types of cells (in particular PEHMB P4-R5 cells, ME-180 cells (ATCC HTB-33; cervical epidermoid carcinoma), VK2/E6E7 human vaginal cell line (Fichorova et al. 1997 Biol. Reprod. 57:847-855), and human primary vaginal karatinocytes (isolated from tissues obtained from vaginal reconstructive surgery)) the compounds were incubated with the different cells for various lengths of time before assessment of cell viability.

HIV-1 IIIB [1] = experiment: HIV-1 IIIB viral binding/entry inhibition in P4R5 cells; type: cell-based
Experimental: as §2
Antiviral assays include a viral binding/entry assay in which reporter cells such as P4R5 are incubated with virus in the presence of compound for two hours at which time the drug is washed off and the cells incubated for 48 hrs before measuring the intracellular production of β-galactosidase (Ojwang et al. 1995 Antimicrobial Agents and Chemotherapy 39:2426-2435). In cell-associated virus inhibition (CAI) assays, HIV-1111B infected SUP T1 cells are pelleted to remove cell free virus and incubated with each compound for ten minutes at 37° C. before a 1:10 dilution in media and incubation with P4R5 indicator cells for 48 hours before measuring β-galactosidase activity. In cell-free virus assays HIV-1IIIB or BaL were incubated with each compound for 10 minutes at 37° C. before a 1:100 dilution in RPM! 1640, and incubated for 2 hours with P4R5 cells, and subsequent assays for viral infectivity were performed 48 hours later using the β-galactosidase method.
Select compounds were assessed for their ability to inhibit events necessary for HIV-1 binding and entry.
The same strategy was tested using PEHMB.

ME-180 cells = experiment: ME-180 cell viability; type: cell-based
[2] = system: Primary vaginal keratinocytes; experiment: Primary vaginal keratinocyte viability; type: cell-based, human
Vk2/E6E7 cells = experiment: Vk2/E6E7 cell viability
CXCR4 [3] = molecular target: T1, CXCR4 (Homo sapiens, UniProt P61073); experiment: FACS analysis of CXCR4 on P4-R5 cells; type: cell-based; conditions: BCD 0.3%
T1 construct: host or cells: P4-R5 (P4-CCR5) cells, HeLa-derived
From the text: (§3) After a 2 hr exposure to PEHMB (0.1%), P4-R5 cell presentation of CXCR4 was reduced from 98% to 29% (FIG. 6).

CXCR4 [4] = molecular target: T1, CXCR4; experiment: FACS analysis of CXCR4 on PM-1 cells; type: cell-based; conditions: PEHMB 0.1%, BCD 0.3%, untreated 45%
Experimental: as §3
A similar experiment (FIG. 7) was performed using the PM-1 T lymphocyte cell line (Lusso et al. 1995 J. Virol 69:3712-3720). […] However, reductions in CD3 were not seen in response to compound exposure, indicating specificity of action with respect to PEHMB's impact on CXCR4 (data not shown).

HIV-1 IIIB [5] = experiment: Modified viral binding inhibition assay: pre-treatment, wash, then HIV-1 IIIB challenge; type: cell-based; conditions: 0.1% or 0.01%
Experimental: In a modified viral binding inhibition assay (VBI) assay, HIV-1-susceptible P4R5 cells were maintained for 1 or 2 hr in the presence of PEHMB (0.1% and 0.01%) and then washed extensively before challenge with HIV-1 IIIB.
HIV-1-susceptible target cells were incubated with PEHMB (0.1%) for 2 hr, washed extensively with PBS, and subsequently challenged with HIV-1 IIIB at 0, 0.5, 1, 2, 3, and 4 hours after washing.

T1 sequence (P61073 whole entry): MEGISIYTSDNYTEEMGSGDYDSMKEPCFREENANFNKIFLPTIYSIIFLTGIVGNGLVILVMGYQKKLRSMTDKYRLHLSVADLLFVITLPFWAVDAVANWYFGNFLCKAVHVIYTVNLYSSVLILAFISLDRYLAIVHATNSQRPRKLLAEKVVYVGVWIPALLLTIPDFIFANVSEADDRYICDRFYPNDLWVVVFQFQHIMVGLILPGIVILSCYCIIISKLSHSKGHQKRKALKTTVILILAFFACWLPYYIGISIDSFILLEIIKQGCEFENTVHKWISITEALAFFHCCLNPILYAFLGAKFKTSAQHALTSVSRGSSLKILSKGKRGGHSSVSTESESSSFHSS

`[H]/N=C(/N)N/C(=N/[H])NCCc1ccccc1` [1-phenethyl biguanide] was tested. Which “CC50 (%)” value (HeLa cells) did it give?
The value was 0.538%.

What does the source list for nonoxynol-9 [N-9]?
CC50 (%) (HeLa cells): 0.007%; IC50 (%) (cell-free HIV-1): 0.005%; CC50 (P4R5 cells; MTT): 0.003%; CC50 % 10 minute exposure (P4R5 cells; P4-R5 cells, 10 minute exposure): 0.2%; CC50 % 2 hr exposure (P4R5 cells; P4-R5 cells, 2 hr exposure): 0.008%; CC50 % 6 hr exposure (P4R5 cells; P4-R5 cells, 6 hr exposure): 0.005%; CC50 (%) (P4R5 cells; P4R5 cell data (2 hr exposure), Table 6): 0.005%; CC50 (%) (P4R5 cells; P4R5 cells, 2 hr exposure, MTT (Table 3)): 0.007%; CC50 (%) (P4R5 cells; Table 5): 0.007%; IC50 (HIV-1 IIIB [1]): 0.003%; IC50 (%) (HIV-1 IIIB [1]; P4R5 cells, 2 hr exposure in the presence of HIV-1IIIB, Table 6): 0.005%; IC50 (%) (HIV-1 IIIB [1]; Table 3): 0.005%; IC50 (%) (HIV-1 IIIB [1]; Table 5): 0.005%; CC50 % 10 minute exposure (ME-180 cells; 10 minute exposure): 0.20%; CC50 % 2 hr exposure (ME-180 cells; 2 hr exposure): 0.008%; CC50 % 6 hr exposure (ME-180 cells; 6 hr exposure): 0.007%; CC50 % 2 hr exposure [2]: 0.007%; CC50 % 10 minute exposure (Vk2/E6E7 cells; 10 minute exposure): 0.03%; CC50 % 2 hr exposure (Vk2/E6E7 cells; 2 hr exposure): 0.006%; CC50 % 6 hr exposure (Vk2/E6E7 cells; 6 hr exposure): 0.002%

Which results are given for `N=C(N)NC(=N)Nc1ccccc1` [1-phenyl biguanide]?
CC50 (%) (HeLa cells): 0.150%; IC50 (%) (cell-free HIV-1): 0.522%

What does the source list for `OC[C@H]1O[C@@H]2O[C@H]3[C@H](O)[C@@H](O)[C@@H](O[C@H]4[C@H](O)[C@@H](O)[C@@H](O[C@H]5[C@H](O)[C@@H](O)[C@@H](O[C@H]6[C@H](O)[C@@H](O)[C@@H](O[C@H]7[C@H](O)[C@@H](O)[C@@H](O[C@H]8[C@H](O)[C@@H](O)[C@@H](O[C@H]1[C@H](O)[C@H]2O)O[C@@H]8CO)O[C@@H]7CO)O[C@@H]6CO)O[C@@H]5CO)O[C@@H]4CO)O[C@@H]3CO` [BCD, β-cyclodextrin]?
cytotoxicity, FIG. 4A (P4R5 cells): non-cytotoxic; remaining infectivity, % of mock-treated cells (HIV-1 IIIB [1]; PEHMB 0.1%, BCD 0.3%, HIV-1 strain IIIB): 27%; effect on CXCR4 (CXCR4 [3]): no apparent effect; CXCR4 presentation (CXCR4 [4]): 22%

How did the “CC50 (%)” value (HeLa cells) turn out when xyleneylene bis-biguanide was run?
Its value is 0.385%.

For dextran sulfate, which “residual antiviral activity after removal of compound” value (HIV-1 IIIB [5]) is on record?
The value was “no residual antiviral activity”.

Reference: US20120148530A1, “Method for the treatment or prevention of virus infection using polybiguanide-based compounds” (Novaflux Biosciences, Inc., priority 2003, published 2012)
